Measured values taken from US20060194837A1, “Tetrahydroisoquinoline compounds” (priority 2004, published 2006).
Like-named read-outs stand apart in the source and are kept apart here.

Legend:
[1] = molecular target: T1, human H3 receptor (Homo sapiens, UniProt Q9Y5N1); experiment: H3 receptor binding (N-[3H]-α-methylhistamine displacement); conditions: membranes of SK-N-MC cells expressing cloned human H3 receptor, 0.8 nM N-[3H]-α-methylhistamine, 60 min at 25° C.
T1 construct: expressed in transfected cells
T1 sequence (Q9Y5N1 whole entry): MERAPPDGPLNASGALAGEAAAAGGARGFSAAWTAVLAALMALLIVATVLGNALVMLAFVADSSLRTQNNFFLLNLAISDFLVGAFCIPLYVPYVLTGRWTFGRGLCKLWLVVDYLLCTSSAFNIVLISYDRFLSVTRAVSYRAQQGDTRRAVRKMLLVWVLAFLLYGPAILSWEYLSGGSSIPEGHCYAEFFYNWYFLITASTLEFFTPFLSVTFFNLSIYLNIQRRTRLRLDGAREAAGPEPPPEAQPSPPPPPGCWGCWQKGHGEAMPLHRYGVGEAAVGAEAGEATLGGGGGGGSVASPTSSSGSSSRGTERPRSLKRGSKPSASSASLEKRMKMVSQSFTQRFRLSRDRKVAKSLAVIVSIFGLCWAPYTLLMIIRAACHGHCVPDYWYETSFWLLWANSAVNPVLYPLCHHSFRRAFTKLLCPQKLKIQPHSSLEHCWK
Description: Briefly, cell pellets from SK-N-MC cells expressing the human H3 receptor were homogenized in 50 mM Tris-HCl/5 mM EDTA and re-centrifuged at 30,000 g for 30 min. Pellets were re-homogenized in 50 mM Tris/6 mM EDTA (pH 7.4). Membranes were incubated with 0.8 nM N-[^3H]-α-methylhistamine plus/minus test compounds for 60 min at 25° C. and harvested by rapid filtration over GF/C glass fiber filters (pretreated with 0.3% polyethylenimine) followed by four washes with ice-cold buffer. Nonspecific binding was defined in the presence of 10 μM histamine.

[2] = molecular target: T2, Rat SERT (Rattus norvegicus, UniProt P31652); experiment: Rat brain SERT binding ([3H]-citalopram displacement); conditions: rat brain membranes without cerebellum, 0.6 nM [3H]-citalopram, 60 min at 25° C.
T2 construct: A rat brain without cerebellum (Zivic Laboratories, Inc.—Pittsburgh, Pa.) was homogenized; tissue Zivic Laboratories, Inc; host or cells: rat brain without cerebellum, membranes
T2 sequence (P31652 whole entry): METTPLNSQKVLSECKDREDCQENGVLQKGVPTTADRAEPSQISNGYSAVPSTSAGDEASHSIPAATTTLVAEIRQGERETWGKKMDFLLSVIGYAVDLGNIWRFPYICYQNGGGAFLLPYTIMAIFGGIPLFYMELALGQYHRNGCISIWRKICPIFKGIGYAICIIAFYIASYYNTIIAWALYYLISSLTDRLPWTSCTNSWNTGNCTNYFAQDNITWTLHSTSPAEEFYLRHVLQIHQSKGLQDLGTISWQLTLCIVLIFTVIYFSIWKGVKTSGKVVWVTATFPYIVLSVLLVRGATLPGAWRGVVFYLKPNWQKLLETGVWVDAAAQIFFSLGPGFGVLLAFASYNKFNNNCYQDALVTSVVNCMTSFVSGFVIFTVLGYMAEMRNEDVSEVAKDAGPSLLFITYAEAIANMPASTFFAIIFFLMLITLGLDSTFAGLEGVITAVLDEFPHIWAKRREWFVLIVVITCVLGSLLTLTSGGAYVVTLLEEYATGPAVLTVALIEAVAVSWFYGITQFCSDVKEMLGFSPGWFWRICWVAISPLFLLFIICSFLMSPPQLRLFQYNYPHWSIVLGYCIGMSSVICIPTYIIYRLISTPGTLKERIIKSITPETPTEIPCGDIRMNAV
Description: The supernatant was removed and re-centrifuged at 15,000 rpm for 30 min. […] Membranes were incubated with 0.6 nM [^3H]-Citalopram plus/minus test compounds for 60 min at 25° C. and harvested by rapid filtration over GF/C glass fiber filters (pretreated with 0.3% polyethylenimine) followed by four washes with ice-cold buffer.

Row | Ki [1] [nM] | Ki ([2]; read-out: Rat SERT Ki) [nM] | SMILES | Ki ([2]; Rat SERT Ki (nM)) [nM]
1 | 38 | 29 | COc1ccc(C2CN(C)Cc3cc(OCCCN4CCC(C(F)(F)F)CC4)ccc32)cc1 (centres unmarked) [Example 38, 4-(4-Methoxy-phenyl)-2-methyl-7-[3-(4-trifluoromethyl-piperidin-1-yl)-propoxy]-1,2,3,4-tetrahydro-isoquinoline] | 
2 | 14 | 6 | COc1ccc(C2CN(C)Cc3cc(OCCCN4CCC5(CC4)OCCO5)ccc32)cc1 (centres unmarked) [Example 41, 7-[3-(1,4-Dioxa-8-aza-spiro[4.5]dec-8-yl)-propoxy]-4-(4-methoxy-phenyl)-2-methyl-1,2,3,4-tetrahydro-isoquinoline] | 
3 | 18 | 3 | COc1ccc(C2CN(C)Cc3cc(OCC(F)CN4CCC(F)CC4)ccc32)cc1 (centres unmarked) [Example 43, 7-[2-Fluoro-3-(4-fluoro-piperidin-1-yl)-propoxy]-4-(4-methoxy-phenyl)-2-methyl-1,2,3,4-tetrahydro-isoquinoline] | 
4 | 18 | 14 | CN1Cc2cc(OCCCN3CCC(F)CC3)ccc2C(c2ccc(OC(F)(F)F)cc2)C1 (centres unmarked) [Example 49, 7-[3-(4-Fluoro-piperidin-1-yl)-propoxy]-2-methyl-4-(4-trifluoromethoxy-phenyl)-1,2,3,4-tetrahydro-isoquinoline] | 
5 | 7 | 3000 | COc1ccc(C2CN(Cc3ccccc3)Cc3cc(OCCCN4CCCCC4)ccc32)cc1 (centres unmarked) [Example 65, 2-Benzyl-4-(4-methoxy-phenyl)-7-(3-piperidin-1-yl-propoxy)-1,2,3,4-tetrahydro-isoquinoline] | 
6 | 0.5 | 104 | CCCN1Cc2cc(OCCCN3CCCCC3)ccc2C(c2ccc(OC)cc2)C1 (centres unmarked) [Example 67, 4-(4-Methoxy-phenyl)-7-(3-piperidin-1-yl-propoxy)-2-propyl-1,2,3,4-tetrahydro-isoquinoline] | 
7 | 1 | 49 | COc1ccc(C2CN(CCCO)Cc3cc(OCCCN4CCCCC4)ccc32)cc1 (centres unmarked) [Example 70, 3-[4-(4-Methoxy-phenyl)-7-(3-piperidin-1-yl-propoxy)-3,4-dihydro-1H-isoquinolin-2-yl]-propan-1-ol] | 
8 | 96 | 2 | COc1ccc(C2CN(C)Cc3cc(OCC4CCNCC4)ccc32)cc1 (centres unmarked) [Example 78, 4-(4-Methoxy-phenyl)-2-methyl-7-(piperidin-4-ylmethoxy)-1,2,3,4-tetrahydro-isoquinoline] | 
9 | 183 | 5 | COc1ccc(C2CN(C)Cc3cc(OCC4CCNCC4)ccc32)cc1Cl (centres unmarked) [Example 79, 4-(3-Chloro-4-methoxy-phenyl)-2-methyl-7-(piperidin-4-ylmethoxy)-1,2,3,4-tetrahydro-isoquinoline] | 
10 | 130 | 3 | CSc1ccc(C2CN(C)Cc3cc(OCC4CCNCC4)ccc32)cc1 (centres unmarked) [Example 80, 2-Methyl-4-(4-methylsulfanyl-phenyl)-7-(piperidin-4-ylmethoxy)-1,2,3,4-tetrahydro-isoquinoline] | 
11 | 70 | 1 | COc1ccc(C2CN(C)Cc3cc(OCC4CCNCC4)ccc32)cc1F (centres unmarked) [Example 81, 4-(3-Fluoro-4-methoxy-phenyl)-2-methyl-7-(piperidin-4-ylmethoxy)-1,2,3,4-tetrahydro-isoquinoline] | 
12 | 64 | 6 | COc1ccc(C2CN(C)Cc3cc(OCC4CCNCC4)ccc32)c(F)c1 (centres unmarked) [Example 82, 4-(2-Fluoro-4-methoxy-phenyl)-2-methyl-7-(piperidin-4-ylmethoxy)-1,2,3,4-tetrahydro-isoquinoline] | 
13 | 11 | 5 | COc1ccc(C2CN(C)Cc3cc(OCC4CCN(C5CCCC5)CC4)ccc32)cc1 (centres unmarked) [Example 86, 7-(1-Cyclopentyl-piperidin-4-ylmethoxy)-4-(4-methoxy-phenyl)-2-methyl-1,2,3,4-tetrahydro-isoquinoline] | 
14 | 2 | 4 | CCN1CCC(COc2ccc3c(c2)CN(C)CC3c2ccc(OC)cc2)CC1 (centres unmarked) [Example 87, 7-(1-Ethyl-piperidin-4-ylmethoxy)-4-(4-methoxy-phenyl)-2-methyl-1,2,3,4-tetrahydro-isoquinoline] | 
15 | 3 | 15 | COc1ccc(C2CN(C)Cc3cc(OCC4CCN(C(C)C)CC4)ccc32)cc1Cl (centres unmarked) [Example 88, 4-(3-Chloro-4-methoxy-phenyl)-7-(1-isopropyl-piperidin-4-ylmethoxy)-2-methyl-1,2,3,4-tetrahydro-isoquinoline] | 
16 | 2 | 5 | COc1ccc(C2CN(C)Cc3cc(OCC4CCN(C(C)C)CC4)ccc32)cc1F (centres unmarked) [Example 89, 4-(3-Fluoro-4-methoxy-phenyl)-7-(1-isopropyl-piperidin-4-ylmethoxy)-2-methyl-1,2,3,4-tetrahydro-isoquinoline] | 
17 | 6 | 22 | CCCN1CCC(COc2ccc3c(c2)CN(C)CC3c2cccc(OC)c2)CC1 (centres unmarked) [Example 93, 4-(3-Methoxy-phenyl)-2-methyl-7-(1-propyl-piperidin-4-ylmethoxy) 1,2,3,4-tetrahydro-isoquinoline] | 
18 | 4 | 15 | COc1cccc(C2CN(C)Cc3cc(OCC4CCN(C5CCCC5)CC4)ccc32)c1 (centres unmarked) [Example 94, 7-(1-Cyclopentyl-piperidin-4-ylmethoxy)-4-(3-methoxy-phenyl)-2-methyl-1,2,3,4-tetrahydro-isoquinoline] | 
19 | 2 | 15 | CCN1CCC(COc2ccc3c(c2)CN(C)CC3c2cccc(OC)c2)CC1 (centres unmarked) [Example 95, 7-(1-Ethyl-piperidin-4-ylmethoxy)-4-(3-methoxy-phenyl)-2-methyl-1,2,3,4-tetrahydro-isoquinoline] | 
20 | 182 | 14 | COc1cccc(C2CN(C)Cc3cc(OC4CCNCC4)ccc32)c1 (centres unmarked) [Example 96, 4-(3-Methoxy-phenyl)-2-methyl-7-(piperidin-4-yloxy)-1,2,3,4-tetrahydro-isoquinoline] | 
21 | 6 | 45 | COc1cccc(C2CN(C)Cc3cc(OC4CCN(C)CC4)ccc32)c1 (centres unmarked) [Example 97, 4-(3-Methoxy-phenyl)-2-methyl-7-(1-methyl-piperidin-4-yloxy)-1,2,3,4-tetrahydro-isoquinoline] | 
22 | 2 | 11 | COc1cccc(C2CN(C)Cc3cc(OC4CCN(C(C)C)CC4)ccc32)c1 (centres unmarked) [Example 98, 7-(1-Isopropyl-piperidin-4-yloxy)-4-(3-methoxy-phenyl)-2-methyl-1,2,3,4-tetrahydro-isoquinoline] | 
23 | 2 | 20 | COc1cccc(C2CN(C)Cc3cc(OC4CCN(C5CCC5)CC4)ccc32)c1 (centres unmarked) [Example 99, 7-(1-Cyclobutyl-piperidin-4-yloxy)-4-(3-methoxy-phenyl)-2-methyl-1,2,3,4-tetrahydro-isoquinoline] | 

Row | SMILES | Ki [1] [nM] | Ki ([2]; read-out: Rat SERT Ki) [nM] | Ki ([2]; Rat SERT Ki (nM)) [nM]
24 | CN1Cc2cc(OCCCN3CCC(F)CC3)ccc2C(c2ccc(Cl)cc2Cl)C1 (centres unmarked) [Example 54, 4-(2,4-Dichloro-phenyl)-7-[3-(4-fluoro-piperidin-1-yl)-propoxy]-2-methyl-1,2,3,4-tetrahydro-isoquinoline] | 16 |  | 32
25 | CN1Cc2cc(OCCCN3CCC(F)CC3)ccc2C(c2cc(Cl)cc(Cl)c2)C1 (centres unmarked) [Example 56, 4-(3,5-Dichloro-phenyl)-7-[3-(4-fluoro-piperidin-1-yl)-propoxy]-2-methyl-1,2,3,4-tetrahydro-isoquinoline] | 20 | 42 | 
